The values below come from article PMC10974052, “Synthesis, Computational Study, and In Vitro α-Glucosidase Inhibitory Action of 1,3,4-Thiadiazole Derivatives of 3-Aminopyridin-2(1H)-ones” (Pharmaceuticals, 2024).

Sequence of α-glucosidase (P53341 whole entry): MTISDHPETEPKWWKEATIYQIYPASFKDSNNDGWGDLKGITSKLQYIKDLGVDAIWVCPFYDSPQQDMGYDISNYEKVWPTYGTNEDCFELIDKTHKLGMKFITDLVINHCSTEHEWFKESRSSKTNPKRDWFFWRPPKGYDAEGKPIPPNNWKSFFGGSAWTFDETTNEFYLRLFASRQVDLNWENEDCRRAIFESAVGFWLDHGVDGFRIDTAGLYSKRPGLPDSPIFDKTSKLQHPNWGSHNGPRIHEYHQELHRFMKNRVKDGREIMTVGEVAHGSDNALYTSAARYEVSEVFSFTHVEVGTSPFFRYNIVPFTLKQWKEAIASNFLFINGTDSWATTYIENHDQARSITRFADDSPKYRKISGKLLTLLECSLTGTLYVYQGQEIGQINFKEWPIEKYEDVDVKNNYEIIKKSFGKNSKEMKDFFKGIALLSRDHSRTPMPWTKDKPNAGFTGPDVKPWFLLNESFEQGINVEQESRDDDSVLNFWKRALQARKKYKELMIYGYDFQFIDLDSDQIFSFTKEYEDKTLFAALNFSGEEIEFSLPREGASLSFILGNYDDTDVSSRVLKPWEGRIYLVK

Tested on in the first series: not given
Assay: not given
Settings: not given
In general, melting point refers to the temperature of the solid-liquid transition. On to `Cc1cc(C)c(NC(=O)c2nnc(CCCC(=O)O)s2)c(=O)[nH]1` [7a, 4-(5-((4,6-Dimethyl-2-oxo-1,2-dihydropyridin-3-yl)carbamoyl)-1,3,4-thiadiazol-2-yl)butanoic acid], for which the melting point fell in the range of 248 to 250 °C.

`Cc1cc(C)c(NC(=O)c2nnc(-c3ccccc3C(=O)O)s2)c(=O)[nH]1` [9a, 2-(5-((4,6-Dimethyl-2-oxo-1,2-dihydropyridin-3-yl)carbamoyl)-1,3,4-thiadiazol-2-yl)benzoic acid] returned a melting point of 315 to 318 °C.

Consider `Cc1cc(-c2cccs2)c(NC(=O)c2nnc(-c3ccccc3C(=O)O)s2)c(=O)[nH]1` [9c, 2-(5-((6-Methyl-2-oxo-4-(thiophen-2-yl)-1,2-dihydropyridin-3-yl)carbamoyl)-1,3,4-thiadiazol-2-yl)benzoic acid], for which the melting point is 275 to 277 °C.

`Cc1cc(C)c(NC(=O)c2nnc(/C=C/C(=O)O)s2)c(=O)[nH]1` [8a, (E)-3-(5-((4,6-Dimethyl-2-oxo-1,2-dihydropyridin-3-yl)carbamoyl)-1,3,4-thiadiazol-2-yl)acrylic acid] yielded a melting point of 261 to 263 °C.

In the case of `Cc1cc(-c2ccccc2)c(NC(=O)c2nnc(-c3ccccc3C(=O)O)s2)c(=O)[nH]1` [9b, 2-(5-((6-Methyl-2-oxo-4-phenyl-1,2-dihydropyridin-3-yl)carbamoyl)-1,3,4-thiadiazol-2-yl)benzoic acid], the melting point lay in the range of 176 to 180 °C.

As for `Cc1cc(-c2ccccc2)c(NC(=O)c2nnc(/C=C/C(=O)O)s2)c(=O)[nH]1` [8b, (E)-3-(5-((6-Methyl-2-oxo-4-phenyl-1,2-dihydropyridin-3-yl)carbamoyl)-1,3,4-thiadiazol-2-yl)acrylic acid], the melting point lay in the range of 199 to 202 °C.

For `Cc1cc(-c2cccs2)c(NC(=O)c2nnc(/C=C/C(=O)O)s2)c(=O)[nH]1` [8c, (E)-3-(5-((6-Methyl-2-oxo-4-(thiophen-2-yl)-1,2-dihydropyridin-3-yl)carbamoyl)-1,3,4-thiadiazol-2-yl)acrylic acid], the melting point is 247 to 250 °C.

`Cc1cc(-c2ccccc2)c(NC(=O)c2nnc(CCCC(=O)O)s2)c(=O)[nH]1` [7b, 4-(5-((6-Methyl-2-oxo-4-phenyl-1,2-dihydropyridin-3-yl)carbamoyl)-1,3,4-thiadiazol-2-yl)butanoic acid] registered a melting point of 243 to 246 °C.

`Cc1cc(-c2cccs2)c(NC(=O)c2nnc(CCCC(=O)O)s2)c(=O)[nH]1` [7c, 4-(5-((6-Methyl-2-oxo-4-(thiophen-2-yl)-1,2-dihydropyridin-3-yl)carbamoyl)-1,3,4-thiadiazol-2-yl)butanoic acid] came in with a melting point of 197 to 200 °C.

The next series concerns the target α-glucosidase (Saccharomyces cerevisiae, UniProt P53341). Nature of the series: In vitro α-glucosidase inhibition assay (p-NPG hydrolysis, 405 nm). It counts as biochemical. On the set-up: inhibition: dose or concentration left out as unconfirmed. Conditions: read-out: The Degree of Inhibition of α-Glucosidase Activity, tested compounds at a concentration of 15 mM (Table 1 title); mean ± standard error of the mean, triplicate. As to the method: Antidiabetic activity was assessed by the degree of inhibition of α-glucosidase activity by the test substances.
The study of the degree of α-glucosidase activity inhibition by the test compounds was performed using a standard method with minor modifications.
Study of the degree of inhibition of α-glucosidase activity by test compounds [25].
The principle of the method is as follows: the α-glucosidase enzyme hydrolyzes 4-Nitrophenyl α-D-glucopyranoside to form a colorimetric product (405 nm), the concentration of which is proportional to the α-glucosidase activity. […] The resulting mixture was incubated for 15 min at +37 °C, then 200 μL of a solution of 4-Nitrophenyl α-D-glucopyranoside (p-Nitrophenyl α-D-glucopyranoside, P-NPG) (5 mM) was added, and then the mixture was incubated at +37 °C for 20 min. Then, the reaction was stopped by adding 500 μL of sodium carbonate (0.1 M). A solution of α-glucosidase (1 U/mL) was used as a blank. We used 200 μL of DMSO in triplicate as a negative control. […] At the same time, a negative control was set without addition of test compounds. All samples were studied in triplicate. Inhibitory activity was expressed as a percentage (%) according to the degree of inhibition of α-glucosidase in comparison with the negative control. It was calculated by the following formula:
Inhibitory activity (%) = (1 − As/Ac)∗100%, where As is the optical density of the test compound, and Ac is the optical density of control.
The IC50 was determined from the graph of enzyme activity changes depending on the sample concentration.
Statistical processing of the results was carried out using the “Excel 365 v2401” program. […] The α-amylase and α-glucosidase enzymes determine the extent to which glucose enters the bloodstream from the gastrointestinal tract. Inhibition of these enzymes can be useful for lowering postprandial glucose levels.
As to `Cc1cc(-c2ccccc2)c(NC(=O)c2nnc(-c3ccccc3C(=O)O)s2)c(=O)[nH]1` [9′b], the inhibition at 15000 µM was 95%.

Staying with this series, now noted: read-out: The Degree of Inhibition of α-Glucosidase Activity; mean ± standard error of the mean, triplicate.
In the case of `Cc1cc(-c2ccccc2)c(NC(=O)c2nnc(CCCC(=O)O)s2)c(=O)[nH]1` [7′b], the inhibition is 95 ± 0.2%.

On to `Cc1cc(-c2cccs2)c(NC(=O)c2nnc(-c3ccccc3C(=O)O)s2)c(=O)[nH]1` [9′c], for which the inhibition turned out to be 21 ± 2.2%.

Take `Cc1cc(-c2cccs2)c(NC(=O)c2nnc(CCC(=O)O)s2)c(=O)[nH]1` [5′c]: the inhibition turned out to be 38.3 ± 2.4%.

Regarding `Cc1cc(-c2ccccc2)c(NC(=O)c2nnc(/C=C/C(=O)O)s2)c(=O)[nH]1` [8′b], the inhibition was 68.2 ± 4.7%.

In the case of `Cc1cc(-c2ccccc2)c(NC(=O)c2nnc(CCC(=O)O)s2)c(=O)[nH]1` [5′b], the inhibition worked out at 72.4 ± 2.3%.

As to `Cc1cc(-c2cccs2)c(NC(=O)c2nnc(/C=C/C(=O)O)s2)c(=O)[nH]1` [8′c], the inhibition turned out to be 8 ± 3%.

As to `Cc1cc(C)c(NC(=O)c2nnc(CCCC(=O)O)s2)c(=O)[nH]1` [7′a], the inhibition is 34.8 ± 4.2%.

`Cc1cc(C)c(NC(=O)c2nnc(/C=C/C(=O)O)s2)c(=O)[nH]1` [8′a]: the inhibition is 14 ± 3%.

As for `Cc1cc(C)c(NC(=O)c2nnc(CCC(=O)O)s2)c(=O)[nH]1` [5′a], the inhibition was determined as 36.3 ± 4.8%.

With `Cc1cc(C)c(NC(=O)c2nnc(-c3ccccc3C(=O)O)s2)c(=O)[nH]1` [9′a], the inhibition stood at 33.6 ± 6.1%.

On to `Cc1cc(-c2cccs2)c(NC(=O)c2nnc(CCCC(=O)O)s2)c(=O)[nH]1` [7′c], for which the inhibition was 93.9 ± 0.4%.

The series is the same for the next values; noted with them: tested compounds at a concentration of 15 mM (Table 1 title); mean ± standard error of the mean, triplicate.
As to `C[C@H]1O[C@H](O[C@H]2[C@H](O)[C@@H](O)[C@@H](O[C@H]3[C@H](O)[C@@H](O)C(O)O[C@@H]3CO)O[C@@H]2CO)[C@H](O)[C@@H](O)[C@@H]1N[C@H]1C=C(CO)[C@@H](O)[C@H](O)[C@H]1O` (stereo partly shown) [Acarbose, reference compound], the “The Degree of Inhibition of α-Glucosidase Activity” value is recorded as 49.5 ± 1.8%.
